Reference: ChEMBL document CHEMBL1148204, “Isolation and structure assignments of rostratins A-D, cytotoxic disulfides produced by the marine-derived fungus Exserohilum rostratum” (J Nat Prod, 2004)

Each molecule was assayed on HCT-116 (assay: Cytotoxicity against human HCT116 cells).
Assay type: functional, cell-based

Row | Structure (SMILES) | IC50 [µM]
1 | O=C1N2[C@H]3[C@H](C[C@]24SS[C@]12C[C@H]1[C@@H]([C@@H](O)CC[C@@H]1O)N2C4=O)[C@@H](O)CC[C@@H]3O [ROSTRATIN A] | 9
2 | O=C1CC[C@H](O)[C@H]2[C@@H]1C[C@@]13SS[C@]4(C[C@@H]5C(=O)CC[C@H](O)[C@@H]5N4C1=O)C(=O)N23 [ROSTRATIN B] | 4.4
3 | CO[C@H]1CC(=O)[C@H]2C[C@@]34SS[C@]5(C[C@@H]6C(=O)C[C@H](OC)[C@H](O)[C@@H]6N5C3=O)C(=O)N4[C@H]2[C@H]1O [ROSTRATIN C] | 1.6
4 | O=C1C[C@@H](S)[C@H](O)[C@H]2[C@@H]1C[C@@]13SS[C@]4(C[C@@H]5C(=O)C[C@@H](S)[C@H](O)[C@@H]5N4C1=O)C(=O)N23 [ROSTRATIN D] | 35
